Measured values as given in patent publication US20220098237A1, “COMPOUND, SYNTHESIS INTERMEDIATE, USE, PHARMACEUTICAL COMPOSITION AND NEUROMODULATORY THERAPEUTIC METHOD” (Remer Consultores Assessoria Empresarial Ltda, priority 2017, published 2022).
Values joined by “and” are separate entries in the source; they are usually repeats but may differ in a detail not shown here. Equal entries are not always repeated. “Also recorded” adds a separate entry of the source. Ends that are not written are not given here.

What was measured:
pilocarpine model = experiment: Pilocarpine model, oral pre-treatment (salivation, first signal, seizure, death/survival); type: in vivo, Mus musculus; set-up: time of occurrence of the first seizure: unit not given here; settings: for time of occurrence of the first salivation: Table 1; for time of occurrence of the first salivation / time of occurrence of the first signal / time of occurrence of the first seizure / time of death occurrence: oral, 10 minutes prior to pilocarpine 320 mg/kg i.p., individual animals; for time of occurrence of the first signal: Table 2; for time of occurrence of the first seizure: Table 3; for time of death occurrence: Table 4; for neuroprotection, survival/death profile after 24 hours: FIG. 7, 600 μg/kg, n=5 per group, compared with SEQ ID No. 1
Procedure: In some examples, the neuromodulatory/neuroprotective/anticonvulsive effects of the composition of the invention have been evaluated in vivo by oral administration to animals. The pharmaceutical composition of the invention was administered to mammals (Mus musculus or mouse) with an oral dose of treatment with different embodiments of the compound of the invention, compared to other compounds or to saline control. In these experiments, the test compounds were administered orally 10 minutes prior to (intraperitoneal) administration of pilocarpine. Pilocarpine hydrochloride (320 mg/kg, Merck), dissolved in 0.9% sterile saline, was given intraperitoneally for induction of SE (status epileticus) (Turski et al., 1983). In the Turski model, the neurotoxic effects begin about 15-25 minutes after the injection of Pilo, with the occurrence of motor and limbic seizures, the animals evolving to a state of continuous (clonic) seizures that characterize SE Sanabria and Cavalheiro, 2000).
In this embodiment, the anticonvulsive effect of the composition of the invention prepared according to Example 2 was evaluated by prior administration of the inventive composition and subsequent administration of pilocarpine to animals. FIG. 4 presents the results of the pilocarpine model, indicating the time for the first salivation with the administration of control, cannabidiol (30 mg/kg), the compound of the invention R1-N-AA1-K-AA2-R2, in which embodiment is the tetrapeptide of SEQ ID No. 1 (500 μg/kg).
In this embodiment, the neuromodulatory effect of the composition of the invention prepared according to Example 2 was evaluated by prior administration of the inventive composition and subsequent administration of pilocarpine to animals. Other test compounds were also evaluated as described below. Administration of pilocarpine leads to severe brain injury, neurotoxicity and usually culminates in the death of the animals. This substance was used in the experiments described below but its harmful neuronal/encephalic effects were inhibited by the prior administration of the composition of the present invention: the vast majority of the animals subjected to these experiments had no symptoms related to brain lesions and survived without apparent damage, in contrast to groups of animals treated with other known substances.
The composition of the invention was prepared according to Example 2 with due concentration correction, for comparison of the effects of SEQ ID No. 1, SEQ ID No. 7 and NFK, such compounds having been previously administered to the animal groups.
In this embodiment, the anticonvulsant effect of different embodiments of the compound of the invention with the structure represented by SEQ ID No. 1, SEQ ID No. 7, NFK, FKF, FKL, as well as the NF, FK, KF and KL dipeptides were evaluated in the pilocarpine model.

pain threshold = experiment: Pain threshold model, pressure apparatus on right paw; type: in vivo, rats; settings: oral, 0.5 to 0.25 mg/kg, individual animals
Procedure: The compounds of the present invention have also been tested as analgesics or neuropathic pain modulators. To that end, the compounds PVNFKF, PVNFK, VNFKF, SEQ ID No. 1 were tested in the pain threshold model. The pain threshold was measured using a pressure apparatus (Ugo Basile, Italy), essentially as described (Randall and Selitto, 1957). Briefly, a force of increasing magnitude (16 g/s) was applied to the back of the right paw of rats. When animals react by kicking, the force in grams required to induce this response is the threshold of pain. Antinoniceptive activity was expressed as the increase in pain threshold compared to control animals.
The compounds of the invention were administered orally to the animals at doses of 0.5 to 0.25 mg/kg and saline was used as a control.

human CB1 receptor = target: T1, human CB1 receptor (Homo sapiens, UniProt P21554); experiment: In vitro radioligand binding, [3H] CP 55940, recombinant CHO cells; settings: reference radioligand agonist
T1 construct: expressed in transfected cells; host or cells: CHO cells
Procedure: In vitro binding assays were performed using recombinant CHO cells expressing the human CB1 receptor and the [3H]
Results are expressed as the percentage of binding of the specific control according to formula: […]
And the percentual inhibition of binding of specific control obtained in the presence of the compound of the invention is:
IC50 values (concentration that causes half of maximal inhibition of specific control binding) and Hill (nH) coefficients were determined by nonlinear regression of the competition curves generated with the mean values of the replicates using the Hill equation:
Where Y=specific binding, A=asymptotic left of curve, D=asymptotic right of curve, C=compound concentration, C50=IC50 and nH=curve coefficient/slope factor. This analysis was performed using the Hill software validated by comparison with data generated by Sigmaplot 4.0 software. Inhibition constants (Ki) were calculated using the equation of Chen Prusoff:
Where L=concentration of the radioligand in the assay; KD=affinity of the radioligand for the receptor. A graph is used to determine the KD.

[1] = target: CB1 receptor in Striatum membranes; experiment: ELISA on Striatum membranes: CB1 recognition by conformation-sensitive anti-CB1 antibody after incubation with 1 µM ligand; assay 2
[2] = target: CB1 receptor in Striatum membranes; experiment: ELISA on Striatum membranes: CB1 recognition by conformation-sensitive anti-CB1 antibody after incubation with 1 µM ligand; assay 5
[3] = target: CB1 receptor in Striatum membranes; experiment: ELISA on Striatum membranes: CB1 recognition by conformation-sensitive anti-CB1 antibody after incubation with 1 µM ligand; assay 1
[4] = target: CB1 receptor in Striatum membranes; experiment: ELISA on Striatum membranes: CB1 recognition by conformation-sensitive anti-CB1 antibody after incubation with 1 µM ligand; assay 4
[5] = target: CB1 receptor in Striatum membranes; experiment: ELISA on Striatum membranes: CB1 recognition by conformation-sensitive anti-CB1 antibody after incubation with 1 µM ligand; assay 3
CB1 receptor = experiment: Screening with anti-CB1 antibodies sensitive to activation/conformational changes, ELISA on Striatum membranes; type: binding; settings: ligands 1 μM, Assay 1-5
Procedure: Antibodies sensitive to CB1 receptor activation were generated and characterized by their specificities. For screening compounds, Striatum membranes (5 μg per well) were plated on NUNC-Immuno 96-well plates (Nalge-Nunc) and dried at room temperature. Membranes were washed with PBS (phosphate buffered saline) and incubated with or without different ligands (1 μM) and the extent of receptor recognition by the antibodies was measured by ELISA. The results of the tests are shown in Table 5, which indicates the % binding to the CB1 receptor in relation to control: […]

[6] = Stability tests under extreme conditions (freezing 24 hours; heating at 100° C. for 10 minutes), HPLC; type: physicochemical
Excerpt: In the vertical axis the area of the HPLC peak is shown. […] Statistical significance data are also shown, the asterisks indicating: (*) P<0.05 vs Control (***) P<0.005 vs Control; (****) P<0.0001 vs Control.

[7] = target: T2, recombinant human CB2 cannabinoid receptor (human, UniProt P34972 1-360); experiment: [3H]WIN 55212-2 radioligand displacement on CHO cells expressing human CB2
T2 construct: whole, on cells; also called human CB2 receptor
Procedure: In vitro binding assays were performed using recombinant CHO cells expressing human CB2 receptor and [3H]

[8] = heating at 100° C. for 10 minutes

Chain of CB1 receptor in Striatum membranes (P21554 whole entry): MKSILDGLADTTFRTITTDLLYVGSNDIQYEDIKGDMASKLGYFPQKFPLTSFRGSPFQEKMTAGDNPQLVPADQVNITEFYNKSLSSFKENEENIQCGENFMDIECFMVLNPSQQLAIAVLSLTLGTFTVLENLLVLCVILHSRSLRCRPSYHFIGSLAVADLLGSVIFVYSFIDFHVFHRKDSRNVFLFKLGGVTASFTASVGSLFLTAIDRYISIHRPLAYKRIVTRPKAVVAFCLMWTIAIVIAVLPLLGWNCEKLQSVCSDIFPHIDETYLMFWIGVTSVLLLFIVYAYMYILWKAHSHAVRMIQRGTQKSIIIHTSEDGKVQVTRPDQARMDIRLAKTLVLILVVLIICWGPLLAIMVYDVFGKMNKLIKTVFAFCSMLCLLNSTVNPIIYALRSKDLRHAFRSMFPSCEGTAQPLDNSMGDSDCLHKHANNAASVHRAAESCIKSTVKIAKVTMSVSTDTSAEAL
T2 sequence (P34972 whole entry): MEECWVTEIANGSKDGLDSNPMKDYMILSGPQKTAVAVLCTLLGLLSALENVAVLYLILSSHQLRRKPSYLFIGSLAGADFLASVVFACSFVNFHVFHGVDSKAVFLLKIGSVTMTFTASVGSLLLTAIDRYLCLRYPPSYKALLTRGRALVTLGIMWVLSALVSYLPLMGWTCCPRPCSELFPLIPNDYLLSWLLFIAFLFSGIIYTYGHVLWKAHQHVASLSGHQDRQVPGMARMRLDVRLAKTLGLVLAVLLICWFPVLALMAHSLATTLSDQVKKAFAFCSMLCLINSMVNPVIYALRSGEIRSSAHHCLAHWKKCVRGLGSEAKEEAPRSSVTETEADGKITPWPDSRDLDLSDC
T1 sequence (P21554 whole entry): as the sequence (P21554 whole entry) above

FKL
time of occurrence of the first salivation (pilocarpine model): 0.333 min and 1.6 min and 0.2 min and 0.633 min and 1.5 min
time of occurrence of the first signal (pilocarpine model): 9.17 min and 5.67 min and 9.5 min and 8.5 min and 4.5 min
time of occurrence of the first seizure (pilocarpine model): 5.3 and 6.35 and 4.83 and 8.82
time of death occurrence (pilocarpine model): 14.53 min and 11.7 min and 10.92 min

VNFKF
pain threshold, force (pain threshold; After 3 h): 85 grams and 40 grams and 35 grams and 50 grams (3×)
pain threshold, force (pain threshold; Immediate): 70 grams (2×) and 65 grams (2×) and 75 grams (2×)

CCCCCCC(C)(C)c1ccc([C@@H]2C[C@H](O)CC[C@H]2CCCO)c(O)c1 [CP 55940, reference compound]
nH (human CB1 receptor): 1

SEQ ID No. 7: tetrapeptide of SEQ ID No. 7, embodiment of R1-N-AA1-K-AA2-R2; sequence not printed in the text (NFKL; Synthesized in laboratory)
neuroprotection, survival/death profile after 24 hours (pilocarpine model): even better than those obtained with SEQ ID No. 1
time of occurrence of the first salivation (pilocarpine model): 1.25 min (2×) and 1.183 min and 1.067 min and 2.45 min
time of occurrence of the first signal (pilocarpine model): 10.25 min and 9.317 min and 10.17 min (2×) and 3.83 min
time of occurrence of the first seizure (pilocarpine model): 15.33 (2×) and 18.4 and 30 and 27.3
time of death occurrence (pilocarpine model): 26.63 min and 25.13 min and 13.5 min

RVDHp (peptide)
% binding to the CB1 receptor in relation to control [1]: 112 % of control
% binding to the CB1 receptor in relation to control [2]: 105 % of control
% binding to the CB1 receptor in relation to control [3]: 103 % of control
% binding to the CB1 receptor in relation to control [4]: 115 % of control
% binding to the CB1 receptor in relation to control [5]: 111 % of control

C=C(C)[C@@H]1CCC(C)=C[C@H]1c1c(O)cc(CCCCC)cc1O [cannabidiol, reference compound]
time for first salivation vs control (significance) (pilocarpine model; FIG. 4, cannabidiol 30 mg/kg, SEQ ID No. 1 500 μg/kg): does not present statistical significance
prostration and nasal bleeding (pilocarpine model; SEQ ID No. 1 500 μg/kg, cannabidiol 30 mg/kg): both prostration and the nasal bleeding was observed; also recorded: both prostration and bleeding were observed

Cc1c(C(=O)c2cccc3ccccc23)c2cccc3c2n1[C@H](CN1CCOCC1)CO3 [WIN 55212-2]
% binding to the CB1 receptor in relation to control (CB1 receptor; listed as Win): 111.483% and 117.95% and 125.56% and 127.52% and 122.49%

VDHp (peptide)
% binding to the CB1 receptor in relation to control [1]: 114 % of control
% binding to the CB1 receptor in relation to control [2]: 113 % of control
% binding to the CB1 receptor in relation to control [3]: 116 % of control
% binding to the CB1 receptor in relation to control [4]: 129 % of control
% binding to the CB1 receptor in relation to control [5]: 131 % of control

PVNFK [reference compound]
pain threshold, force (pain threshold; After 3 h): 55 grams (2×) and 45 grams and 40 grams (2×) and 60 grams
pain threshold, force (pain threshold; Immediate): 70 grams and 75 grams (3×) and 65 grams and 60 grams

FKF
time of occurrence of the first salivation (pilocarpine model): 0.38 min and 0.95 min and 0.50 min and 1.50 min
time of occurrence of the first signal (pilocarpine model): 5.3 min and 6.35 min and 8.33 min and 8.82 min
time of occurrence of the first seizure (pilocarpine model): 10.25 and 6.28 and 8.92 and 3.83 and 7.82
time of death occurrence (pilocarpine model): 12.9 min and 13.17 min and 20.67 min and 16.67 min and 13.5 min

RVDHp: N-extended version of hemopressin, RVD-Hp (pepcan 12) (RVDPVNFKLLSH; Hemoglobin subunit alpha; UniProt P69905 93-104, looked up, fragment)
% binding to the CB1 receptor in relation to control (CB1 receptor): 103.39% and 111.53% and 110.87% and 114.76% and 105.22%

NFK
neuroprotection, survival/death profile after 24 hours (pilocarpine model): equivalent to those obtained with SEQ ID No. 1
occurrence of first salivation (in words) (pilocarpine model; FIG. 8): inhibited or delayed the occurrence of first salivation
time of occurrence of the first salivation (pilocarpine model): 1.38 min and 0.75 min and 0.42 min and 0.98 min
time of occurrence of the first signal (pilocarpine model): 6.28 min and 8.92 min and 4.83 min and 7.82 min
time of occurrence of the first seizure (pilocarpine model): 13.38 and 11.33 and 9.67 and 8 and 9.93
time of death occurrence (pilocarpine model): 16.83 min and 13.53 min and 11.7 min and 10.92 min and 10.87 min

PVNFKF [reference compound]
pain threshold, force (pain threshold; After 3 h): 45 grams (2×) and 30 grams and 55 grams (2×) and 65 grams
pain threshold, force (pain threshold; Immediate): 75 grams (2×) and 65 grams and 60 grams and 70 grams and 80 grams

CC(C)C[C@H](NC(=O)[C@H](Cc1ccccc1)NC(=O)[C@H](CCCCN)NC(=O)[C@H](Cc1ccccc1)NC(=O)[C@H](CC(N)=O)NC(=O)[C@@H](NC(=O)[C@@H]1CCCN1)C(C)C)C(=O)N[C@@H](CO)C(=O)N[C@@H](Cc1cnc[nH]1)C(=O)O [Hp, hemopressin]
area of the HPLC peak, control ([6]; control sample, n=2): 140
area of the HPLC peak after freezing ([6]; freezing for 24 h): 97
part lost or degraded by freezing ([6]; freezing for 24 h): approximately 31%
area of the HPLC peak after heating [6, 8]: 50
part lost or degraded upon heating [6, 8]: approximately 64.3%
% binding to the CB1 receptor in relation to control (CB1 receptor): 91.33% and 92.74% and 97.05% and 90.23% and 73.49%

PVNFKFLSH [hemopressin]
% binding to the CB1 receptor in relation to control [1]: 92.7 % of control
% binding to the CB1 receptor in relation to control [2]: 73.5 % of control
% binding to the CB1 receptor in relation to control [3]: 91.3 % of control
% binding to the CB1 receptor in relation to control [4]: 90.2 % of control
% binding to the CB1 receptor in relation to control [5]: 97 % of control

NFKF (also: biotin, position not given here) [SEQ ID No. 1-Biotin]
% binding to the CB1 receptor in relation to control [1]: 85.5 % of control
% binding to the CB1 receptor in relation to control [2]: 97.5 % of control
% binding to the CB1 receptor in relation to control [3]: 89.2 % of control
% binding to the CB1 receptor in relation to control [4]: 84.8 % of control
% binding to the CB1 receptor in relation to control [5]: 83.3 % of control

B1: tetrapeptide SEQ ID No. 1 (peptide)
peptide: NFKF
notes: Synthetic peptide; for the radioligand assays it was a 10 mM stock solution in DMSO
binding result [7]: no binding (tested: 1 and 10 µM)
